According to article PMC10408569, “Recruitment of hexahydroquinoline as anticancer scaffold targeting inhibition of wild and mutants EGFR (EGFR^WT, EGFR^T790M, and EGFR^L858R)” (Journal of Enzyme Inhibition and Medicinal Chemistry, 2023):

Tests used:
[1] = system: NCI-H522; test: NCI-60 anticancer screening (SRB); assay type: cell-based; conditions: Homo sapiens; NCI-H522, NSC lung cancer; one dose 10 μM; read-out: Growth Inhibition Percentage (GI %)
[2] = system: DU-145; test: NCI-60 anticancer screening (SRB); assay type: cell-based; conditions: Homo sapiens; DU-145, prostate cancer; one dose 10 μM; read-out: Growth Inhibition Percentage (GI %)
[3] = system: SN 12C; test: NCI-60 anticancer screening (SRB); assay type: cell-based; conditions: Homo sapiens, SN12C; SN 12C, renal cancer; one dose 10 μM; read-out: Growth Inhibition Percentage (GI %)
[4] = system: EKVX; test: NCI-60 anticancer screening (SRB); assay type: cell-based; conditions: Homo sapiens, NSC lung cancer, one dose 10 μM, read-out: Growth Inhibition Percentage (GI %)
[5] = system: NCI-H460; test: NCI-60 anticancer screening (SRB); assay type: cell-based; conditions: Homo sapiens; NCI-H460, NSC lung cancer; one dose 10 μM; read-out: Growth Inhibition Percentage (GI %)
[6] = system: MALME-3M; test: NCI-60 anticancer screening (SRB); assay type: cell-based; conditions: Homo sapiens, melanoma, one dose 10 μM, read-out: Growth Inhibition Percentage (GI %)
[7] = system: SNB-75; test: NCI-60 anticancer screening (SRB); assay type: cell-based; conditions: Homo sapiens; SNB-75, CNS cancer; one dose 10 μM; read-out: Growth Inhibition Percentage (GI %)
[8] = system: A498; test: NCI-60 anticancer screening (SRB); assay type: cell-based; conditions: Homo sapiens; A498, renal cancer; one dose 10 μM; read-out: Growth Inhibition Percentage (GI %)
[9] = system: CAKI-1; test: NCI-60 anticancer screening (SRB); assay type: cell-based; conditions: Homo sapiens; CAKI-1, renal cancer; one dose 10 μM; read-out: Growth Inhibition Percentage (GI %)
[10] = system: SK-MEL-5; test: NCI-60 anticancer screening (SRB); assay type: cell-based; conditions: Homo sapiens; SK-MEL-5, melanoma; one dose 10 μM; read-out: Growth Inhibition Percentage (GI %)
[11] = system: T-47D; test: NCI-60 anticancer screening (SRB); assay type: cell-based; conditions: Homo sapiens, T47D, breast cancer, one dose 10 μM, read-out: Growth Inhibition Percentage (GI %)
[12] = system: RPMI-8226; test: NCI-60 anticancer screening (SRB); assay type: cell-based; conditions: Homo sapiens; RPMI-8226, leukemia; one dose 10 μM; read-out: Growth Inhibition Percentage (GI %)
[13] = system: SR; test: NCI-60 anticancer screening (SRB); assay type: cell-based; conditions: Homo sapiens, leukemia, one dose 10 μM, read-out: Growth Inhibition Percentage (GI %)
[14] = system: SF-295; test: NCI-60 anticancer screening (SRB); assay type: cell-based; conditions: Homo sapiens; SF-295, CNS cancer; one dose 10 μM; read-out: Growth Inhibition Percentage (GI %)
[15] = system: HOP-62; test: NCI-60 anticancer screening (SRB); assay type: cell-based; conditions: Homo sapiens; HOP-62, NSC lung cancer; one dose 10 μM; read-out: Growth Inhibition Percentage (GI %)
[16] = system: HCT-116; test: NCI-60 anticancer screening (SRB); assay type: cell-based; conditions: Homo sapiens; HCT-116, colon cancer; one dose 10 μM; read-out: Growth Inhibition Percentage (GI %)
[17] = system: ACHN; test: NCI-60 anticancer screening (SRB); assay type: cell-based; conditions: Homo sapiens, renal cancer, one dose 10 μM, read-out: Growth Inhibition Percentage (GI %)
[18] = system: SF-539; test: NCI-60 anticancer screening (SRB); assay type: cell-based; conditions: Homo sapiens; SF-539, CNS cancer; one dose 10 μM; read-out: Growth Inhibition Percentage (GI %)
[19] = system: IGROV1; test: NCI-60 anticancer screening (SRB); assay type: cell-based; conditions: Homo sapiens, IGROV-1; IGROV1, ovarian cancer; one dose 10 μM; read-out: Growth Inhibition Percentage (GI %)
[20] = system: HT29; test: NCI-60 anticancer screening (SRB); assay type: cell-based; conditions: Homo sapiens, HT-29; HT29, colon cancer; one dose 10 μM; read-out: Growth Inhibition Percentage (GI %)
[21] = system: NCI-H226; test: NCI-60 anticancer screening (SRB); assay type: cell-based; conditions: Homo sapiens; NCI-H226, NSC lung cancer; one dose 10 μM; read-out: Growth Inhibition Percentage (GI %)
[22] = system: U251; test: NCI-60 anticancer screening (SRB); assay type: cell-based; conditions: Homo sapiens, U-251; U251, CNS cancer; one dose 10 μM; read-out: Growth Inhibition Percentage (GI %)
[23] = system: OVCAR-5; test: NCI-60 anticancer screening (SRB); assay type: cell-based; conditions: Homo sapiens; OVCAR-5, ovarian cancer; one dose 10 μM; read-out: Growth Inhibition Percentage (GI %)
[24] = system: SF-268; test: NCI-60 anticancer screening (SRB); assay type: cell-based; conditions: Homo sapiens; SF-268, CNS cancer; one dose 10 μM; read-out: Growth Inhibition Percentage (GI %)
[25] = system: SNB-19; test: NCI-60 anticancer screening (SRB); assay type: cell-based; conditions: Homo sapiens; SNB-19, CNS cancer; one dose 10 μM; read-out: Growth Inhibition Percentage (GI %)
[26] = system: SK-MEL-2; test: NCI-60 anticancer screening (SRB); assay type: cell-based; conditions: Homo sapiens; SK-MEL-2, melanoma; one dose 10 μM; read-out: Growth Inhibition Percentage (GI %)
[27] = system: 786-0; test: NCI-60 anticancer screening (SRB); assay type: cell-based; conditions: Homo sapiens; 786-0, renal cancer; one dose 10 μM; read-out: Growth Inhibition Percentage (GI %)
[28] = system: K-562; test: NCI-60 anticancer screening (SRB); assay type: cell-based; conditions: Homo sapiens, K562; K-562, leukemia; one dose 10 μM; read-out: Growth Inhibition Percentage (GI %)
[29] = system: LOX IMVI; test: NCI-60 anticancer screening (SRB); assay type: cell-based; conditions: Homo sapiens, melanoma, one dose 10 μM, read-out: Growth Inhibition Percentage (GI %)
[30] = system: HOP-92; test: NCI-60 anticancer screening (SRB); assay type: cell-based; conditions: Homo sapiens; HOP-92, NSC lung cancer; one dose 10 μM; read-out: Growth Inhibition Percentage (GI %)
[31] = system: M14; test: NCI-60 anticancer screening (SRB); assay type: cell-based; conditions: Homo sapiens; M14, melanoma; one dose 10 μM; read-out: Growth Inhibition Percentage (GI %)
[32] = system: UACC-257; test: NCI-60 anticancer screening (SRB); assay type: cell-based; conditions: Homo sapiens; UACC-257, melanoma; one dose 10 μM; read-out: Growth Inhibition Percentage (GI %)

CCOC(=O)C1=C(N)N(c2ccc(Cl)cc2)C2=C(C(=O)CC(C)(C)C2)C1c1ccc(OC)cc1 (racemic) [8h, (±)-Ethyl 2-amino-1–(4-chlorophenyl)-4–(4-methoxyphenyl)-7,7-dimethyl-5-oxo-1,4,5,6,7,8-hexahydroquinoline-3-carboxylate]
inhibition at 10 µM [1]: < 10% | inhibition at 10 µM [2]: < 10% | inhibition at 10 µM [3]: < 10% | inhibition at 10 µM [4]: < 10% | inhibition at 10 µM [5]: < 10% | inhibition at 10 µM [6]: < 10% | inhibition at 10 µM [7]: < 10% | inhibition at 10 µM [8]: < 10% | inhibition at 10 µM [9]: < 10% | inhibition at 10 µM [10]: < 10% | inhibition at 10 µM [11]: < 10% | inhibition at 10 µM [12]: < 10% | inhibition at 10 µM [13]: < 10% | inhibition at 10 µM [14]: < 10% | inhibition at 10 µM [15]: < 10% | inhibition at 10 µM [16]: < 10% | inhibition at 10 µM [17]: < 10% | inhibition at 10 µM [18]: < 10% | inhibition at 10 µM [19]: < 10% | inhibition at 10 µM [20]: < 10% | inhibition at 10 µM [21]: < 10% | inhibition at 10 µM [22]: < 10% | inhibition at 10 µM [23]: < 10% | inhibition at 10 µM [24]: < 10% | inhibition at 10 µM [25]: < 10% | inhibition at 10 µM [26]: < 10% | inhibition at 10 µM [27]: < 10% | inhibition at 10 µM [28]: < 10% | inhibition at 10 µM [29]: < 10% | melting point: 255 to 257 °C | inhibition at 10 µM [30]: < 10% | inhibition at 10 µM [31]: < 10% | inhibition at 10 µM [32]: < 10%

CCOC(=O)C1=C(N)N(c2ccc(C)cc2)C2=C(C(=O)CC(C)(C)C2)C1c1ccccn1 (racemic) [12b, (±)-Ethyl 2-amino-7,7-dimethyl-1–(4-methylphenyl)-5-oxo-1-phenyl-4-(pyrdin-2-yl)-1,4,5,6,7,8-hexahydroquinoline-3-carboxylate]
inhibition at 10 µM [1]: < 10% | inhibition at 10 µM [2]: < 10% | inhibition at 10 µM [3]: < 10% | inhibition at 10 µM [4]: 19% | inhibition at 10 µM [5]: < 10% | inhibition at 10 µM [6]: < 10% | inhibition at 10 µM [7]: 19% | inhibition at 10 µM [8]: < 10% | inhibition at 10 µM [9]: 16% | inhibition at 10 µM [10]: 13% | inhibition at 10 µM [11]: < 10% | inhibition at 10 µM [12]: < 10% | inhibition at 10 µM [13]: < 10% | inhibition at 10 µM [14]: < 10% | inhibition at 10 µM [15]: < 10% | inhibition at 10 µM [16]: < 10% | inhibition at 10 µM [17]: < 10% | inhibition at 10 µM [18]: < 10% | inhibition at 10 µM [19]: < 10% | inhibition at 10 µM [20]: < 10% | inhibition at 10 µM [21]: < 10% | inhibition at 10 µM [22]: < 10% | inhibition at 10 µM [23]: < 10% | inhibition at 10 µM [24]: 14% | inhibition at 10 µM [25]: < 10% | inhibition at 10 µM [26]: < 10% | inhibition at 10 µM [27]: < 10% | inhibition at 10 µM [28]: < 10% | inhibition at 10 µM [29]: < 10% | melting point: 196 to 198 °C | inhibition at 10 µM [30]: < 10% | inhibition at 10 µM [31]: < 10% | inhibition at 10 µM [32]: < 10%

CCOC(=O)C1=C(N)N(c2ccc(Cl)cc2)C2=C(C(=O)CC(C)(C)C2)C1c1ccccc1Cl (racemic) [6c, (±)-Ethyl 2-amino-4–(2-chlorophenyl)-1–(4-chlorophenyl)-7,7-dimethyl-5-oxo-1,4,5,6,7,8-hexahydroquinoline-3-carboxylate]
inhibition at 10 µM [1]: 63% | inhibition at 10 µM [2]: < 10% | inhibition at 10 µM [3]: 31% | inhibition at 10 µM [4]: 30% | inhibition at 10 µM [5]: 58% | inhibition at 10 µM [6]: 30% | inhibition at 10 µM [7]: 17% | inhibition at 10 µM [8]: < 10% | inhibition at 10 µM [9]: 43% | inhibition at 10 µM [10]: 66% | inhibition at 10 µM [11]: 67% | inhibition at 10 µM [12]: < 10% | inhibition at 10 µM [13]: < 10% | inhibition at 10 µM [14]: 27% | inhibition at 10 µM [15]: 19% | inhibition at 10 µM [16]: 66% | inhibition at 10 µM [17]: 40% | inhibition at 10 µM [18]: < 10% | inhibition at 10 µM [19]: < 10% | inhibition at 10 µM [20]: 60% | inhibition at 10 µM [21]: 25% | inhibition at 10 µM [22]: 54% | inhibition at 10 µM [23]: < 10% | inhibition at 10 µM [24]: 23% | inhibition at 10 µM [25]: 27% | inhibition at 10 µM [26]: 24% | inhibition at 10 µM [27]: 15% | inhibition at 10 µM [28]: < 10% | inhibition at 10 µM [29]: 18% | melting point: 179 to 181 °C | inhibition at 10 µM [30]: 29% | inhibition at 10 µM [31]: 28% | inhibition at 10 µM [32]: 50%
